Test results reported in article PMC7571145, “Multistep Synthesis and In Vitro Anticancer Evaluation of 2-Pyrazolyl-Estradiol Derivatives, Pyrazolocoumarin-Estradiol Hybrids and Analogous Compounds” (Molecules, 2020).

Assays:
HeLa cells = assay: MTT cytotoxicity assay on HeLa cells; format: cell-based; conditions: 72 h; for primary growth inhibitory screen, cell viability, HeLa: 2.5 µM, mean±SD, untreated control about 100; for IC50: Homo sapiens, HeLa, compounds 1-7 µM, mean ± SD, read-out: IC50 on HeLa
Protocol: (§1) Cytotoxicity screens were performed to assess the in vitro anticancer activity of the synthesized A-ring-linked 2-pyrazoles of estradiol, the pyrazolocoumarin-estradiol hybrids, and their structurally simplified non-steroidal analogs on various cancerous cell lines such as MCF-7, PC-3, DU145, and HeLa and on non-cancerous MRC-5 fibroblasts. The 2-acetyl-phenol starting materials (4, 5, and 15) were also included for comparison. All compounds were applied in 2.5 µM concentration for 72 h. The obtained cell viability data were used to construct a heat map (Figure 2) in order to select compounds that exert cancer cell line-specific cytotoxicity. […] Furthermore, some compounds discriminated only DU145 cells and could eliminate these type of prostate cancer cells.
(§2) To understand structure-function relationships, we also included the structural analogs of the selected compounds, namely 7a (C-17 acetate of 8a), 8c (C-17 OH counterpart of 7c), and 9a (steroidal pair of 19a) into subsequent analyses. […] For this, compounds were applied on MCF-7, PC-3, DU145, and HeLa and on non-cancerous MRC-5 fibroblasts in various concentrations for 72 h or were treated with cisplatin at different concentrations. On the viability data, dose–response curves were fitted (Figure S1) and IC50 values were calculated accordingly (Table 3). In agreement with the primary cytotoxicity screen (Table S1), the obtained IC50 concentrations clearly indicated which compound was selectively effective on one or more cancer cell lines. […] Typically, acetylated steroidal pyrazoles were less favorable than deacetylated counterparts due to reduced cancer cell selectivity (7c, 10a).
(§3) To evaluate the in vitro pharmacological effects of the synthesized molecules, each compound was first dissolved in cell culture grade DMSO (Sigma) to a final concentration of 10 mM. Using MTT colorimetric assay, the cytotoxicity of these compounds was evaluated on cancerous (MCF-7, HeLa, DU145, PC-3) and non-cancerous (MRC-5) cell lines. Briefly, 5000 cells/well of each cell line were seeded in 96-well plates and were left to grow overnight in a 5% CO2 atmosphere at 37 °C. On the next day, cells were treated with each derivative separately, in case of the primary screen, or only with the selected compounds upon IC50 determination. Cells were incubated with the test compounds for 72 h in a 5% CO2 atmosphere at 37 °C. End point was measured by incubating cells for 1 h with 0.5 mg/mL of MTT reagent (Serva) dissolved in serum free culture medium. The formazan crystals formed by metabolically active cells were later dissolved in DMSO. Optical density of the obtained solutions was measured at 570 nm using a Synergy HTX plate reader. […] The analysis and conclusions were made based on three independent experiments. Normalized data were analyzed and the heat map was constructed using GraphPad Prism 7 software.

MCF-7 cells = assay: MTT cytotoxicity assay on MCF-7 cells; format: cell-based; conditions: for primary growth inhibitory screen, cell viability, MCF-7: 2.5 µM, 72 h, mean±SD, untreated control about 100; for IC50: Homo sapiens, MCF7, 72 h, compounds 1-7 µM, mean ± SD, read-out: IC50 on MCF-7
Protocol: as §1, §2, §3

MRC-5 fibroblasts = assay: MTT cytotoxicity assay on non-cancerous MRC-5 fibroblasts; format: cell-based; conditions: 72 h; for primary growth inhibitory screen, cell viability, MRC-5 / effect on non-cancerous fibroblasts: 2.5 µM; for primary growth inhibitory screen, cell viability, MRC-5 / IC50: MTT; for primary growth inhibitory screen, cell viability, MRC-5: mean±SD, untreated control about 100; for effect on non-cancerous fibroblasts: based on the heat map; for IC50: Homo sapiens, MRC5, compounds 1-7 µM, mean ± SD, read-out: IC50 on MRC-5
Protocol: as §1, §2, §3

DU145 cells = assay: MTT cytotoxicity assay on DU145 prostate cancer cells; format: cell-based; conditions: for primary growth inhibitory screen, cell viability, DU145: 2.5 µM, 72 h, mean±SD, untreated control about 100; for IC50: Homo sapiens, DU-145, 72 h, compounds 1-7 µM, mean ± SD, read-out: IC50 on DU145
Protocol: as §1, §2, §3

PC-3 cells = assay: MTT cytotoxicity assay on PC-3 prostate cancer cells; format: cell-based; conditions: for primary growth inhibitory screen, cell viability, PC-3: 2.5 µM, 72 h, mean±SD, untreated control about 100; for IC50: Homo sapiens, PC-3, 72 h, compounds 1-7 µM, mean ± SD, read-out: IC50 on PC-3
Protocol: as §1, §2, §3

SMILES | primary growth inhibitory screen, cell viability, HeLa (HeLa cells) | primary growth inhibitory screen, cell viability, MCF-7 (MCF-7 cells) | primary growth inhibitory screen, cell viability, MRC-5 (MRC-5 fibroblasts) | primary growth inhibitory screen, cell viability, DU145 (DU145 cells) | melting point | primary growth inhibitory screen, cell viability, PC-3 (PC-3 cells) | IC50 (HeLa cells) | IC50 (MCF-7 cells) | effect on non-cancerous fibroblasts (MRC-5 fibroblasts) | IC50 (MRC-5 fibroblasts) | IC50 (DU145 cells) | IC50 (PC-3 cells)
CC(=O)O[C@H]1CC[C@H]2[C@@H]3CCc4cc(O)c(-c5nn(-c6ccc(C)cc6)cc5CO)cc4[C@H]3CC[C@]12C [Compound 10b] | 68.3±2.2 | 87.6±0.7 | 96.9±3.8 | ≥ 100±6.8 | 254 to 256 °C | 88.0±5.6 | – | – | – | – | – | –
CC(=O)O[C@H]1CC[C@H]2[C@@H]3CCc4cc(O)c(-c5nn(-c6ccc(Cl)cc6)cc5CO)cc4[C@H]3CC[C@]12C [Compound 10c] | 72.4±4.2 | 63.2±2.2 | 96.4±10.1 | 77.3±6.3 | 288 to 290 °C | 81.6±6.8 | – | – | – | – | – | –
C[C@]12CC[C@@H]3c4cc(-c5nn(-c6ccccc6)cc5CO)c(O)cc4CC[C@H]3[C@@H]1CC[C@@H]2O [Compound 11a] | 75.4±1.1 | 93.4±3.7 | ≥ 100±8.2 | 98.2±5.4 | 141 to 143 °C | 59.7±3.2 | 4.3 ± 1 µM | 6.8 ± 1 µM | no or very mild effect | > 7 µM | > 7 µM | 2.9 ± 1.3 µM
Cc1ccc(-n2cc(CO)c(-c3cc4c(cc3O)CC[C@@H]3[C@@H]4CC[C@]4(C)[C@@H](O)CC[C@@H]34)n2)cc1 [Compound 11b] | 70.1±4.5 | 80.4±2.9 | ≥ 100±2.2 | 97.5±10.1 | 201 to 203 °C | 74.3±2.3 | – | – | – | – | – | –
C[C@]12CC[C@@H]3c4cc(-c5nn(-c6ccc(Cl)cc6)cc5CO)c(O)cc4CC[C@H]3[C@@H]1CC[C@@H]2O [Compound 11c] | 77.9±1.5 | ≥ 100±0.7 | ≥ 100±8.4 | 127.1±4.9 | 240 to 242 °C | 87.1±3.8 | – | – | – | – | – | –
CC(=O)c1cc2c(cc1O)CCCC2 [Compound 15, 3-Acetyl-5,6,7,8-tetrahydro-2-naphthol] | 53.8±8.3 | ≥ 100±1.9 | ≥ 100±3.7 | ≥ 100±6.7 | 70 to 72 °C | ≥ 100±2.2 | 3.6 ± 1.2 µM | > 7 µM | no or very mild effect | > 7 µM | > 7 µM | > 7 µM
O=Cc1cn(-c2ccccc2)nc1-c1cc2c(cc1O)CCCC2 [Compound 17a, 3′-(3-Hydroxy-5,6,7,8-tetrahydronaphthalen-2-yl)-1′-phenyl-1′H-pyrazole-4′-carbaldehyde] | 53.7±3.3 | ≥ 100±2.3 | ≥ 100±7.3 | ≥ 100±6.4 | 137 to 138 °C | 71.0±20.9 | 2.2 ± 1.1 µM | 5.17 ± 1 µM | no or very mild effect | 6.26 ± 1.1 µM | 5.62 ± 1 µM | 4.3 ± 1 µM
Cc1ccc(-n2cc(C=O)c(-c3cc4c(cc3O)CCCC4)n2)cc1 [Compound 17b, 3′-(3-Hydroxy-5,6,7,8-tetrahydronaphthalen-2-yl)-1′-(4″-tolyl)-1′H-pyrazole-4′-carbaldehyde] | ≥ 100±3.9 | 93.2±6.0 | ≥ 100±14.5 | ≥ 100±16.8 | 151 to 153 °C | ≥ 100±3.0 | – | – | – | – | – | –
O=Cc1cn(-c2ccc(Cl)cc2)nc1-c1cc2c(cc1O)CCCC2 [Compound 17c, 1′-(4″-Chlorophenyl)-3′-(3-hydroxy-5,6,7,8-tetrahydronaphthalen-2-yl)-1′H-pyrazole-4″-carbaldehyde] | ≥ 100±4.0 | 77.5±4.6 | ≥ 100±4.0 | 80.3±10.8 | 182 to 184 °C | 61.9±2.8 | 6.23 ± 1 µM | 4.12 ± 1 µM | no or very mild effect | 5.72 ± 1.1 µM | > 7 µM | 4.39 ± 1 µM
OCc1cn(-c2ccccc2)nc1-c1cc2c(cc1O)CCCC2 [Compound 18a, 3-(4′-(Hydroxymethyl)-1′-phenyl-1′H-pyrazol-3′-yl)-5,6,7,8-tetrahydro-2-naphthol] | ≥ 100±6.5 | 98.0±7.1 | ≥ 100±0.1 | 87.0±18.2 | 135 to 137 °C | 91.5±12.9 | – | – | – | – | – | –
Cc1ccc(-n2cc(CO)c(-c3cc4c(cc3O)CCCC4)n2)cc1 [Compound 18b, 3-(4′-(Hydroxymethyl)-1′-(4″-tolyl)-1′H-pyrazol-3-yl)-5,6,7,8-tetrahydro-2-naphthol] | ≥ 100±8.7 | ≥ 100±5.3 | ≥ 100±2.6 | 45.3±2.5 | 163 to 165 °C | 99.6±7.7 | > 7 µM | > 7 µM | no or very mild effect | > 7 µM | 2.7 ± 1.1 µM | > 7 µM
OCc1cn(-c2ccc(Cl)cc2)nc1-c1cc2c(cc1O)CCCC2 [Compound 18c, 3-(1′-(4″-Chlorophenyl)-4′-(hydroxymethyl)-1′H-pyrazol-3′-yl)-5,6,7,8-tetrahydro-2-naphthol] | ≥ 100±6.6 | ≥ 100±4.7 | ≥ 100±2.3 | ≥ 100±4.3 | 154 to 156 °C | 90.9±3.0 | – | – | – | – | – | –
O=c1oc2cc3c(cc2c2nn(-c4ccccc4)cc12)CCCC3 [Compound 19a, 2-Phenyl-7,8,9,10-tetrahydrobenzo[6,7]chromeno[4,3-c]pyrazol-4(2H)-one] | ≥ 100±8.7 | ≥ 100±3.9 | ≥ 100±3.0 | 21.6±0.5 | 221 to 223 °C | 95.4±1.3 | > 7 µM | 6.83 ± 1.1 µM | no or very mild effect | > 7 µM | 1.41 ± 1.1 µM | 4.7 ± 1 µM
